“And” between values parts separate entries of the source, which are not always exact repeats. Equal values may be shown once.
System: isolated Langendorff-perfused rat hearts
Experiment: Langendorff-perfused rat hearts, haemodynamic parameters
Set-up: key to LVSP, individual hearts / LVEDP, individual hearts: pressure in mmHg; Max (Figure 5c): unit not given here
Settings: for Max (Figure 5c): one column per heart; for LVSP representative trace, ON: during perfusion with compound
Experimental: Next, we tested for the functional effects of F10 in isolated Langendorff-perfused rat hearts. Hearts were initially stabilized in modified Krebs-Henseleit (KH) solution for about 25–30 min and subsequently perfused with KH solution containing 20 μmol L^−1 F10 for 5 mins to reach a new steady state.
Rat hearts were Langendorff-perfused as described previously. Briefly, Wistar rats (Rattus norvegicus, male, 200–250 g, 7 weeks old) were anesthetized by injection of 0.9 mL sodium pentobarbitone 20% (w/v). […] The aorta was cannulated and secured with sutures (Mersilk 3‐0; Ethicon, Somerville, NJ, USA). Hearts were perfused at a constant perfusion pressure of 70 ± 2 mmHg using a peristaltic pump (Gilson Minipuls 4, Middleton, WI, USA) and a feedback control system (STH Pump Controller; AD Instruments, Oxford, UK). […] A fluid‐filled balloon, attached to a pressure transducer, was inserted into the left ventricle and inflated to give an end‐diastolic pressure between 3 and 8 mmHg. Left ventricular pressure (LVP), perfusion pressure, coronary flow and arterial and venous oxygen tensions were recorded using a PowerLab recorder and LabChart 8.0 software (ADInstruments). Functional parameters were averaged for ∼80 cardiac cycles at 5 min intervals.

[1] = 20 μmol L^−1 F10 or 1 μmol L^−1 Mavacamten
[2] = Time 11 min, during perfusion with 20 μmol L^−1 F10 or 1 μmol L^-1 Mavacamten
[3] = Time 12 min, during perfusion with 20 μmol L^−1 F10 or 1 μmol L^-1 Mavacamten
[4] = Time 13 min, during perfusion with 20 μmol L^−1 F10 or 1 μmol L^-1 Mavacamten
[5] = Time 14 min, during perfusion with 20 μmol L^−1 F10 or 1 μmol L^-1 Mavacamten
[6] = Time 15 min, during perfusion with 20 μmol L^−1 F10 or 1 μmol L^-1 Mavacamten

CC(C)n1c(=O)cc(N[C@@H](C)c2ccccc2)[nH]c1=O [Mavacamten]
effect on coronary perfusion / coronary flow [1]: without affecting
effect on heart rate [1]: without affecting
effect on left ventricular end-diastolic pressure (LVEDP) [1]: did not affect
Max (Figure 5c) (Time 0 min): 3876.58 and 5238.56 and 5331.08 and 5274.63
Max (Figure 5c) (Time 1 min): 3763.48 and 5575.44 and 5372.46 and 4664.37
Max (Figure 5c) (Time 2 min): 3604.67 and 5570.63 and 5457.56 and 4849.22
Max (Figure 5c) (Time 3 min): 3616.7 and 5958.05 and 5555.1 and 4920.12
Max (Figure 5c) (Time 4 min): 3720.17 and 5852.17 and 5485.6 and 4634
Max (Figure 5c) (Time 5 min): 3611.89 and 6003.77 and 5528.57 and 4575.4
Max (Figure 5c) (Time 6 min): 3669.64 and 6398.4 and 5572.15 and 4575.4
Max (Figure 5c) (Time 7 min): 3638.35 and 5690.95 and 5454.91 and 4575.4
Max (Figure 5c) (Time 8 min): 3568.57 and 5926.76 and 5613.04 and 4575.4
Max (Figure 5c) (Time 9 min): 3638.35 and 6073.55 and 6702.43 and 4575.4
Max (Figure 5c) (Time 10 min): 3558.95 and 6376.75 and 5920.41 and 4694.75
LVEDP, individual hearts [2]: 1 mmHg (2×) and 2 mmHg (2×) and 3 mmHg
LVSP, individual hearts [2]: 91 and 157 and 150 and 205 and 152
Max (Figure 5c) (Time 11 min): 3462.69 and 5852.17 and 5171.55 and 4904.93
LVEDP, individual hearts [3]: 0 and 1 (2×) and 2 and 3
LVSP, individual hearts [3]: 71 and 113 and 134 and 163 and 147
Max (Figure 5c) (Time 12 min): 2779.3 and 4057.05 and 4519.31 and 4773.25
LVEDP, individual hearts [4]: 0 and 1 (2×) and 3 and 5
LVSP, individual hearts [4]: 60 and 95 and 115 and 137 and 135
Max (Figure 5c) (Time 13 min): 2415.94 and 3070.46 and 3716.1 and 3709.72
LVEDP, individual hearts [5]: 0 and 1 (2×) and 2 and 5
LVSP, individual hearts [5]: 51 and 81 and 104 and 115 and 105
Max (Figure 5c) (Time 14 min): 2076.65 and 2695.08 and 3441.74 and 3481.82
LVEDP, individual hearts [6]: 0 and 1 (2×) and 2 and 7
LVSP, individual hearts [6]: 45 and 71 and 97 and 99 and 100
Max (Figure 5c) (Time 15 min): 1876.93 and 2447.23 and 3260.21 and 3233.66
LVEDP, individual hearts (Time 16 min, after washout): 0 and 1 (2×) and 3 and 5
LVSP, individual hearts (Time 16 min, after washout): 44 and 65 and 100 and 90 and 98
LVEDP, individual hearts (Time 17 min, after washout): 0 and 1 (2×) and 3 and 2
LVSP, individual hearts (Time 17 min, after washout): 49 and 71 and 103 and 101 and 98
LVEDP, individual hearts (Time 18 min, after washout): 1 mmHg (4×) and 3 mmHg
LVSP, individual hearts (Time 18 min, after washout): 52 and 78 and 106 and 103 and 96
LVEDP, individual hearts (Time 19 min, after washout): 1 mmHg (4×) and 2 mmHg
LVSP, individual hearts (Time 19 min, after washout): 55 and 83 and 109 (2×) and 98
LVEDP, individual hearts (Time 20 min, after washout): 1 mmHg (3×) and 2 mmHg (2×)
LVSP, individual hearts (Time 20 min, after washout): 58 and 87 and 114 (2×) and 98
Max (Figure 5c) (Time 20 min): 2218.63 and 2954.96 and 3682.2 and 4327.58
LVEDP, individual hearts (Time 21 min, after washout): 1 mmHg (3×) and 2 mmHg (2×)
LVSP, individual hearts (Time 21 min, after washout): 60 and 101 (2×) and 118 (2×)
Max (Figure 5c) (Time 21 min): 2317.29 and 3027.15 and 3768.27 and 4469.39
LVEDP, individual hearts (Time 22 min, after washout): 1 mmHg (4×) and 0 mmHg
LVSP, individual hearts (Time 22 min, after washout): 63 and 96 and 122 and 121 and 125
Max (Figure 5c) (Time 22 min): 2358.19 and 3503.6 and 3945.22 and 4568.14
LVEDP, individual hearts (Time 23 min, after washout): 1 mmHg (2×) and 0 mmHg and 2 mmHg and 3 mmHg
LVSP, individual hearts (Time 23 min, after washout): 66 and 99 and 125 and 126 and 103
Max (Figure 5c) (Time 23 min): 2526.64 and 3729.79 and 4137.98 and 4461.79
LVEDP, individual hearts (Time 24 min, after washout): 1 mmHg (4×) and 0 mmHg
LVSP, individual hearts (Time 24 min, after washout): 67 and 106 and 126 and 130 and 104
Max (Figure 5c) (Time 24 min): 2654.17 and 3905.46 and 4295.47 and 4963.17
LVEDP, individual hearts (Time 25 min, after washout): 1 and 0 (2×) and 3 and 2
LVSP, individual hearts (Time 25 min, after washout): 67 and 105 and 127 and 133 and 110
Max (Figure 5c) (Time 25 min): 2752.83 and 3729.79 and 4394.02 and 5097.38
LVSP representative trace, OFF (after washout, t 0 s): 97.9459 mmHg
LVSP representative trace, OFF (after washout, t 10 s): 98.66 mmHg
LVSP representative trace, OFF (after washout, t 20 s): 99.4941 mmHg
LVSP representative trace, OFF (after washout, t 30 s): 99.8652 mmHg
LVSP representative trace, OFF (after washout, t 40 s): 99.9074 mmHg
LVSP representative trace, OFF (after washout, t 50 s): 100.799 mmHg
LVSP representative trace, OFF (after washout, t 60 s): 101.94 mmHg
LVSP representative trace, OFF (after washout, t 70 s): 102.076 mmHg
LVSP representative trace, OFF (after washout, t 80 s): 102.473 mmHg
LVSP representative trace, OFF (after washout, t 90 s): 103.301 mmHg
LVSP representative trace, OFF (after washout, t 100 s): 104.178 mmHg
LVSP representative trace, OFF (after washout, t 110 s): 104.015 mmHg
LVSP representative trace, OFF (after washout, t 120 s): 104.172 mmHg
LVSP representative trace, OFF (after washout, t 130 s): 104.333 mmHg
LVSP representative trace, OFF (after washout, t 140 s): 104.863 mmHg
LVSP representative trace, OFF (after washout, t 150 s): 105.62 mmHg
LVSP representative trace, OFF (after washout, t 160 s): 106.146 mmHg
LVSP representative trace, OFF (after washout, t 170 s): 107.035 mmHg
LVSP representative trace, OFF (after washout, t 180 s): 107.188 mmHg
LVSP representative trace, OFF (after washout, t 190 s): 108.073 mmHg
LVSP representative trace, OFF (after washout, t 200 s): 108.759 mmHg
LVSP representative trace, OFF (after washout, t 210 s): 109.171 mmHg
LVSP representative trace, OFF (after washout, t 220 s): 109.899 mmHg
LVSP representative trace, OFF (after washout, t 230 s): 110.383 mmHg
LVSP representative trace, OFF (after washout, t 240 s): 111.699 mmHg
LVSP representative trace, OFF (after washout, t 250 s): 111.591 mmHg
LVSP representative trace, OFF (after washout, t 260 s): 112.354 mmHg
LVSP representative trace, OFF (after washout, t 270 s): 113.909 mmHg
LVSP representative trace, OFF (after washout, t 280 s): 115.189 mmHg
LVSP representative trace, OFF (after washout, t 290 s): 115.643 mmHg
LVSP representative trace, OFF (after washout, t 300 s): 115.694 mmHg
LVSP representative trace, OFF (after washout, t 310 s): 117.014 mmHg
LVSP representative trace, OFF (after washout, t 320 s): 117.329 mmHg
LVSP representative trace, OFF (after washout, t 330 s): 117.56 mmHg
LVSP representative trace, OFF (after washout, t 340 s): 118.377 mmHg
LVSP representative trace, OFF (after washout, t 350 s): 118.795 mmHg
LVSP representative trace, OFF (after washout, t 360 s): 118.884 mmHg
LVSP representative trace, OFF (after washout, t 370 s): 120.043 mmHg
LVSP representative trace, OFF (after washout, t 380 s): 121.007 mmHg
LVSP representative trace, OFF (after washout, t 390 s): 121.543 mmHg
LVSP representative trace, OFF (after washout, t 400 s): 122.385 mmHg
LVSP representative trace, ON (t 0 s): 185.674 mmHg
LVSP representative trace, ON (t 10 s): 179.044 mmHg
LVSP representative trace, ON (t 20 s): 172.645 mmHg
LVSP representative trace, ON (t 30 s): 172.645 mmHg
LVSP representative trace, ON (t 40 s): 172.645 mmHg
LVSP representative trace, ON (t 50 s): 163.036 mmHg
LVSP representative trace, ON (t 60 s): 160.436 mmHg
LVSP representative trace, ON (t 70 s): 155.482 mmHg
LVSP representative trace, ON (t 80 s): 149.519 mmHg
LVSP representative trace, ON (t 90 s): 144.889 mmHg
LVSP representative trace, ON (t 100 s): 139.74 mmHg
LVSP representative trace, ON (t 110 s): 137.111 mmHg
LVSP representative trace, ON (t 120 s): 131.856 mmHg
LVSP representative trace, ON (t 130 s): 128.177 mmHg
LVSP representative trace, ON (t 140 s): 123.963 mmHg
LVSP representative trace, ON (t 150 s): 121.031 mmHg
LVSP representative trace, ON (t 160 s): 117.5 mmHg
LVSP representative trace, ON (t 170 s): 114.951 mmHg
LVSP representative trace, ON (t 180 s): 110.93 mmHg
LVSP representative trace, ON (t 190 s): 108.804 mmHg
LVSP representative trace, ON (t 200 s): 106.216 mmHg
LVSP representative trace, ON (t 210 s): 103.076 mmHg
LVSP representative trace, ON (t 220 s): 101.63 mmHg
LVSP representative trace, ON (t 230 s): 99.0368 mmHg
LVSP representative trace, ON (t 240 s): 96.0294 mmHg
LVSP representative trace, ON (t 250 s): 94.9632 mmHg
LVSP representative trace, ON (t 260 s): 93.4811 mmHg
LVSP representative trace, ON (t 270 s): 90.0331 mmHg
LVSP representative trace, ON (t 280 s): 88.9689 mmHg
